Data on two compounds can be found in patent publication US12178808B2, “Amorphous solid dispersion comprising 6-(1-acryloylpiperidin-4-yl)-2-(4-phenoxyphenyl)nicotinamide” (BEIJING INNOCARE PHARMA TECH CO., LTD., priority 2018, dated 2024).

Converted amounts (≈) assume the structure as drawn.

Data set [1] in a line: Dissolution in fasted-state simulated intestinal fluid (FaSSIF). It is filed as physicochemical. The method, then:
10 mg of accurately weighted samples of Type A and Type F, and 50 mg of HPMCAS-20-SDD (ASD with 20% drug loading made via spray-drying dispersion, see Example 3) were each added to 20 mL of fasted-state simulated intestinal fluid (FaSSIF) solution (pH 6.5) in a 50-mL centrifuge tube. The tube was placed in a shaker and kept shaking with 100 rpm at 37° C. At different time intervals (10, 30, 60, 120, 240 min), 350 μL suspension was removed and centrifuged at 13,000 rpm for 3 minutes to give a clear solution that was then analyzed by HPLC.
Samples of HPMCAS-20-SDD, HPMCAS-40-SDD, HPMCAS-60-SDD, PVPVA-20-HME were tested for dissolution according to the protocols of Example 5.

The format of data set [2] is physicochemical. The settings on record: 24 h.
Data set [3] in a line: Bioavailability of Type F crystalline form. The settings on record: in vivo. The text has this: Type F is a stable crystalline form and is useful as an active pharmaceutical ingredient (API) for a pharmaceutical formulation. However, its dissolution is slow and bioavailability is low (20%).
Data set [4] can be described thus: Glass transition temperature by DSC. It is filed as physicochemical. As to conditions: DSC 0 to 180° C. at 10° C./min. The method, then: Accurately weighted samples (containing 5 mg of Compound I. see Table 3) were prepared according to the protocols of Examples 3 and 4, except varying the polymer and the drug amount. The examples were each placed in a DSC pan (TA Instruments), which was then sealed and placed in a TA Instruments Q2000. The pan was heated at 105° C. for 3 minutes and then rapidly cooled to 0° C. for 1 minute. The DSC analysis was carried out between 0 to 180° C. at a rate of 10° C./min.

A word on the solubility: it is the concentration that dissolves in the medium under given conditions. A higher solubility goes with a readily soluble substance. A word on the bioavailability: it is dose-corrected exposure relative to a reference, in per cent. Low values mean poor availability, high ones good availability. For `C=CC(=O)N1CCC(c2ccc(C(N)=O)c(-c3ccc(Oc4ccccc4)cc3)n2)CC1` [Type F, 6-(1-acryloylpiperidin-4-yl)-2-(4-phenoxyphenyl)nicotinamide], the dissolution result in data set [1] (general statement on the crystalline form) is “slow”. The solubility in data set [2] is 4 µg/mL (≈ 9.36 µM). In data set [3], this compound gave a bioavailability of 20%.
On to `C=CC(=O)N1CCC(c2ccc(C(N)=O)c(-c3ccc(Oc4ccccc4)cc3)n2)CC1` [Type A, 6-(1-acryloylpiperidin-4-yl)-2-(4-phenoxyphenyl)nicotinamide], for which the Tg in data set [4] came out at 69.4 °C. The “dissolution in FaSSIF (comparison)” value in data set [1] (FaSSIF pH 6.5, 37° C., 100 rpm, 10-240 min) is “better than Type F's”. Moreover, the solubility in data set [2] stood at 13 µg/mL (≈ 30.4 µM).
